The record followed here is patent US8603539B2, “Compositions for drug delivery” (Dr. Reddy's Laboratories Limited, priority 2005, dated 2013).

This data set relates to New Zealand white rabbits. In words: Comparative dermal irritation study (PDII). The settings on record: rabbit skin, patch 24 hours; erythema and edema scores at 25, 48 and 72 hours.

Experimental: Six male New Zealand white rabbits of age between 10 to 15 months and weight in the range of 2 to 3 Kg were used in the study. […] The hair on the backs of the rabbits was clipped and approximately 0.5 g of Test or Reference or Control 2 was placed on a gauze patch and was applied to the skin site. Separate gauze patches containing Test, Reference and Control 2 were applied on the back. The patches were moistened with 0.5 ml physiological saline after application. 0.5 ml of Control 1 was injected into a fourth gauze patch after applying the patch on the skin. The patches were removed after 24 hours.
The test and control items were categorized based on the Primary Dermal Irritation Index (PDII). The PDII was determined as the ratio of total irritation score (TIS) and total number of observations. The TIS was calculated by adding the subtotal values for erythema and edema. The subtotal values for erythema and edema were separately calculated by adding the irritation scores at 25, 48 and 72 hours post-application. The following scoring criteria were used as described in the literature (S. C. Gad et al., Acute Toxicology Testing: Perspectives and Horizons, The Telford Press, Inc., Caldwell, N.J., 1988):

For `CCCCCCCCCCCCOS(=O)(=O)[O-].[Na+]` [Control 1, sodium lauryl sulphate], the “PDII (Primary Dermal Irritation Index)” value stood at 0.44.
